Values belong to the compound of their own block, whether it stands above or below them.
Assays:
Type in all cases: biochemical
p38α = target: T1, p38α (Homo sapiens, UniProt Q16539); test: purified enzyme kinase assay; also NanoBRET ([…])
T1 construct: gene MAPK14

Yck2 [1] = target: T2, Yck2 (Candida albicans, UniProt A0A1D8PKB4); test: purified enzyme kinase assay; also NanoBRET ([…])
Yck2 [2] = target: T2, Yck2; test: purified enzyme kinase assay
Yck2 [3] = target: T2, Yck2; test: purified enzyme kinase assay; also NanoBRET ([…]) and MIB/MS competition
CK1α = target: T3, CK1α (Homo sapiens, UniProt P48729); test: purified enzyme kinase assay
T3 construct: gene CSNK1A1
T3 sequence (P48729 2-337): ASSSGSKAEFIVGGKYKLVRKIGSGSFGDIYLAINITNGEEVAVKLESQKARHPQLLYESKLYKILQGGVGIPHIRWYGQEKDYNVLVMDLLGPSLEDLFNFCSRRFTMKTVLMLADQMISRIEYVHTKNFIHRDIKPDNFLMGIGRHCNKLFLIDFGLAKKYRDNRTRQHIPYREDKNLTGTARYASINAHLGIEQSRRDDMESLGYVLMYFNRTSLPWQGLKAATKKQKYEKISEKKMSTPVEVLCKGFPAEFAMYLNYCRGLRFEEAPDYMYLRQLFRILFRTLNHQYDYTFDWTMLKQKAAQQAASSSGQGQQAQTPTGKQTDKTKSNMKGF

T2 sequence (A0A1D8PKB4 entry or part of it): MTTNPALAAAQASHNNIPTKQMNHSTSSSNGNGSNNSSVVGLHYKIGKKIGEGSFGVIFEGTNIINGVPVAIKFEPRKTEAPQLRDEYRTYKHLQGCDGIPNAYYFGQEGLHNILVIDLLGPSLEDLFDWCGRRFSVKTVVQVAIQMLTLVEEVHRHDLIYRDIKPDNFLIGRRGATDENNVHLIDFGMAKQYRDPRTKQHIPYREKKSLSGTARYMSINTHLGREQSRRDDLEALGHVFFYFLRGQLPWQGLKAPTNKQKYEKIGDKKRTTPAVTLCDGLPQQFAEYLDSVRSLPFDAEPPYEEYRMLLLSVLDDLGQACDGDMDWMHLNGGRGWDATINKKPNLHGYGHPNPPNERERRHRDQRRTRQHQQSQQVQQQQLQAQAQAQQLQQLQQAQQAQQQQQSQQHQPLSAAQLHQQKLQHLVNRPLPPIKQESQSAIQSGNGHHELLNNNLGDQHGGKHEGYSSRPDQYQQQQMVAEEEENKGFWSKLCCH
T1 sequence (Q16539 2-360): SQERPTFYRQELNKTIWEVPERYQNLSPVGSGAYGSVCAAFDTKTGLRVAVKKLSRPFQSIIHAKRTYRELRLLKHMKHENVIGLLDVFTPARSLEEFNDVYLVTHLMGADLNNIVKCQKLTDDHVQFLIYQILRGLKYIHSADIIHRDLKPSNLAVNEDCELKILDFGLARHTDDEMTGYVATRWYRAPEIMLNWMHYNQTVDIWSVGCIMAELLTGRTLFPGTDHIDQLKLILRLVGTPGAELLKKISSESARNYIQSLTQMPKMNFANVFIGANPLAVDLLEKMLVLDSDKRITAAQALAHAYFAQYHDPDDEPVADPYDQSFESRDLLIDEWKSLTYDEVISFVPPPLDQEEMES

- IC50 (p38α): 0.17 µM
Structure (SMILES): Cc1ccc2c(-c3ccncc3)c(-c3ccc(F)cc3)nn2c1 [GW, GW461484A]

Structure (SMILES): CC(=O)c1cnc2ccc(-c3cc(Cl)c(O)c(Cl)c3)nc2c1N[C@H]1CC[C@H](CN(C)C)CC1 [OTS-167]
- IC50 (Yck2 [1]): 0.13 µM

Structure (SMILES): Cc1nc(N)sc1-c1ccnc(Nc2ccc(N3CCOCC3)cc2)n1 [Cyc-116]
- IC50 (Yck2 [2]): 0.14 µM

Structure (SMILES): Cc1n[nH]c2ccc(-c3cc(OC[C@@H](N)Cc4ccccc4)cnc3-c3ccoc3)cc12 [GSK, GSK507358A]
- IC50 (Yck2 [3]): 0.16 µM

- IC50 (CK1α): 0.014 µM
Structure (SMILES): CN1CCC(F)(Cn2cnc(-c3ccc(F)cn3)c2-c2ccnc3[nH]ccc23)CC1 [MU1742]

— article doi:10.1101/2025.01.10.632200, “Chemoproteomic Profiling of C. albicans for Characterization of Anti-fungal Kinase Inhibitors” (bioRxiv, 2025)
